1 molecule from US20210147932A1, “FLUORESCENT PROBES FOR QUANTIFICATION OF DNA DAMAGE AND REPAIR” (The Board of Trustees of the Leland Stanford Junior …, priority 2019, published 2021) can be followed below.

The test system of assay [1] is DNA AP site (AP site containing DNA, oligo 15). In words: Fluorescence response of probe covalently attached to the AP site of a DNA hairpin. The class given is biochemical. As to the method:
FIG. 2B provides emission spectra of oligonucleotide-probe conjugates compared to the emission spectra of the free probe at 2 μM concentration in 50 mM Tris buffer pH 7.0. Excitation was at 470 nm for Compound (1) (also referred to herein as CCVJ1) and 450 nm for Compounds 8 and 9 (also referred to herein as NP1 and NP2) and Compounds 4 and 6 (also referred to herein as BD1 and BD2).
To assess the potential fluorescence response of each probe, a 17mer DNA hairpin containing a single AP site was prepared and reacted it with a 10-fold excess of probe overnight. The subsequent DNA-probe conjugates were precipitated to remove excess fluorophore and full DNA labelling was confirmed by MALDI-TOF mass spectrometry (Table 1). The reacted DNAs were re-suspended in buffer to a concentration of 2 μM and the emission spectra compared with the spectra of the free probes in solution. […] In addition to its large fluorescence response, CCVJ1 is accessed readily through a facile 4-step synthesis and has good spectral overlap with fluorescein. This makes the probe accessible to a wide range of researchers and well suited to the majority of fluorescence-based instruments.
In addition to the 5′ and 3′ neighboring bases, studies were done of the effect of the orphaned base Z paired opposite the abasic site on the UBER probe system (FIG. 10, panels C-D). Using the sequence where X=C and Y=G, the identity was varied of the base Z opposite the AP site. […] As a result, the smaller pyrimidine bases yielded a greater fluorescence light up response than the larger purine bases. It was also observed a strong effect by the opposing base on the rate of oxime formation (FIG. 10, panel D). […] This trend is in contrast to the neighboring base effect discussed above in which stronger stacking bases accelerated the rate of oxime formation.
General procedure for creating AP site DNA: A deoxyuridine containing oligonucleotide (typically 5-20 μM) was treated with 10 U/mL E. coli UDG (New England Biolabs) for 10 minutes at 37° C. in buffer to create AP site containing DNA (see below for MALDI-TOF confirmation). The hairpin was then reacted with probe from a DMSO stock solution (final DMSO concentration <5%).
Procedure for assessing fluorescence response of probes: To assess the fluorescence response of the probes, 25 μM AP site containing DNA (oligo 15) was prepared in a 20 μL solution and allowed to react with 500 μM of each probe overnight. The DNA was then precipitated by the addition of 80 μL 0.33 M sodium acetate and 300 μL ethanol and centrifuged at 21,100 g for 1 hr at 4° C. The resulting DNA pellet was washed twice with 70% EtOH and re-suspended in buffer to a concentration of 2 μM. A portion of the DNA pellet was used for MALDI-TOF analysis. The emission spectra of the probe-oligonucleotide conjugate was measured and compared against a 2 μM solution of the free probe

Assay [2] deals with AP-containing single-stranded DNA oligonucleotide (oligonucleotide 18). As to the kind of experiment: Reaction of probe with AP-containing single-stranded DNA. The class given is biochemical. As to the method: FIG. 8 provides representative plot for the reaction of Compound (1) (CCVJ1) with single stranded DNA oligonucleotide 18.
Additional experiments were performed to study the origins of this unusually rapid reaction. […] To test the effect that proximity between the alkoxyamine and planar portion of the probe had on oxime kinetics in our probes, probes were synthesized having variable-length linkers (CCVJ2 and CCVJ3) from aldehyde reactive linkers L2 and L3 respectively (FIG. 2A). […] To test the importance of a double-stranded DNA structure to the rate and fluorescence response, an AP-containing single-stranded DNA oligonucleotide was reacted with CCVJ1. At pH 7, CCVJ1 reacted with a second-order rate constant of 33 M^−1s^−1 with the single-stranded substrate, roughly 5-fold slower than a double-stranded hairpin with identical sequence context (FIG. 8).

The test system of assay [3] is non-lesion containing DNA hairpin (undamaged double stranded DNA). In words: Fluorescence of probe with non-lesion DNA hairpin (non-covalent). Conditions: 5 μM probe, 20 μM DNA; over free probe. The class given is binding. The protocol:
(§1) FIG. 9 provides interaction between Compound (1) (CCVJ1) and DNA. […] (Ex. 485, Em. 538).
(§2) To further explore the hypothesis that the oxime rate acceleration in these AP-site DNAs was related to base stacking interactions, the fluorescence was measured of CCVJ1 in the presence and absence of a non-lesion containing DNA hairpin.

Assay [4] deals with DNA hairpin containing a tetrahydrofuran spacer (pseudo AP site). As to the kind of experiment: Fluorescence of probe with pseudo AP site DNA hairpin (non-covalent). The class given is binding. As to the method: as §1, §2
Assay [5] is described as follows: Off-target light-up with small-molecule carbonyl species. Conditions: 5 μM CCVJ1, 500 μM carbonyl species, 37° C. The protocol:
FIG. 13 provides fluorescence response of 5 μM Compound (1) (CCVJ1) with 500 μM of various biologically relevant carbonyl species after 1 h incubation in buffer at 37° C. […] (Ex. 485, Em. 538)
Since the probe design involves conformational restriction to induce a light-up signal, it was hypothesized that off-target oxime formation with small molecules might induce a relatively small signal relative to DNA, thus providing a measure of selectivity in signaling. […] Another potential aspect is that ketones or aldehydes in the environment might compete with the DNA AP site to react with the aminooxy group, thereby consuming the free probe and reducing the maximum signal. Initial testing of the reactivity of CCVJ1 with AP site-containing DNA in the presence of increasing amounts of competing 2-deoxyribose, the closest small-molecule analogue to the DNA AP site. […] This was repeated this experiment with pyruvic acid, a highly reactive ketone and a common cellular metabolite.

The next assay has as its system AP-DNA. As to the kind of experiment: Oxime formation kinetics of probe with AP-DNA. The class given is biochemical. Conditions: Tris buffer, probe concentration 10-100 μM.

Entries after “also recorded” stand apart in the source; their conditions may differ.

On to `N#C/C(=C\c1cc2c3c(c1)CCCN3CCC2)C(=O)NCCON` [CCVJ1], for which the “increase in fluorescence when bound to the AP site vs free probe” value in assay [1] (17mer hairpin conjugate 2 μM vs free probe) is given as 256 fold. Further, the “overall increase in fluorescence relative to the probe alone, optimal neighboring bases” value in assay [1] (AP hairpin X=C, Y=G, Z=C) was determined as 508 fold. In addition, in assay [1] (relative to the unbound probe), the “fluorescence light up response (summary)” value is 250-500 fold. Besides, in assay [2], the “increase in fluorescence on reaction with single-stranded DNA” value is given as 4 fold. Moreover, in assay [2] (pH 7), the “rate with single-stranded substrate, slower than double-stranded hairpin of identical sequence context” value is “roughly 5 fold” and the “second-order rate constant with single-stranded substrate” value is 33 M⁻¹ s⁻¹. In addition, the “increase in fluorescence intensity upon addition of non-lesion DNA hairpin” value in assay [3] is given as approximately 2.5 fold. In addition, the “fluorescence with pseudo AP hairpin, higher than with undamaged DNA” value in assay [4] was approximately 4 fold. Further, the “increase in fluorescence with pseudo AP hairpin over the free probe” value in assay [4] (5 μM probe, 20 μM DNA) is approximately 10 fold. In assay [5], the “light-up response with small-molecule ketones and aldehydes” value is “absence of any fluorescence response; also recorded: none of them generated a significant light-up response”. The “lag time tss of UBER probe coupled assay” value in the assay on AP-DNA fell in the range of 5 to 50 min.
